Laboratory results published in ChEMBL document CHEMBL3044590, “Nematicidal activity of plant essential oils and components from coriander (Coriandrum sativum), Oriental sweetgum (Liquidambar orientalis), and valerian (Valeriana wallichii) essential oils against pine wood nematode (Bursaphelenchus xylophilus)” (2008).

How the values were obtained:
Format in all cases: functional
[1] = test system: Bursaphelenchus xylophilus; test: Nematicidal activity against Bursaphelenchus xylophilus assessed as nematode mortality at 0.2 mg/mL measured 24 hr post dose by microscopy
[2] = test system: Bursaphelenchus xylophilus; test: Nematicidal activity against Bursaphelenchus xylophilus assessed as nematode mortality at 0.6 mg/mL measured 24 hr post dose by microscopy
[3] = test system: Bursaphelenchus xylophilus; test: Nematicidal activity against Bursaphelenchus xylophilus assessed as nematode mortality at 0.4 mg/mL measured 24 hr post dose by microscopy
[4] = test system: Bursaphelenchus xylophilus; test: Nematicidal activity against Bursaphelenchus xylophilus assessed as nematode mortality at 0.8 mg/mL measured 24 hr post dose by microscopy
[5] = test system: Bursaphelenchus xylophilus; test: Nematicidal activity against Bursaphelenchus xylophilus assessed as nematode mortality at 1 mg/mL measured 24 hr post dose by microscopy
[6] = test system: Bursaphelenchus xylophilus; test: Nematicidal activity against Bursaphelenchus xylophilus assessed as nematode mortality at 2 mg/mL measured 24 hr post dose by microscopy

SMILES	mortality at 200 µg/mL [1]	mortality at 600 µg/mL [2]	mortality at 400 µg/mL [3]	mortality at 800 µg/mL [4]	mortality at 1000 µg/mL [5]	mortality at 2000 µg/mL [6]
C/C=C\c1cc(OC)c(OC)cc1OC [CIS-ASARONE]	15.8%	96.2%	47.9%	100%	100%	100%
CCCCCCC/C=C/CO	98%	100%	100%	100%	100%	100%
C=Cc1ccccc1 [STYRENE]	–	–	–	–	–	6.7%
OCCCc1ccccc1 [HYDROCINNAMYL ALCOHOL]	–	–	–	–	–	17.2%
CCCCCCCCCCCC=O [DODECANAL]	11.5%	37.6%	20.8%	77.8%	86.3%	100%
C/C=C/c1cc(OC)c(OC)cc1OC [TRANS-ASARONE]	–	–	–	–	–	12.1%
CCCCCCCC=O [OCTANAL]	3.5%	55.2%	31.2%	79.3%	89%	100%
CCCCCCCCC [NONANE]	–	–	–	–	–	1.7%
CC(O)c1ccccc1 (stereo not given) [PHENYL ETHANOL]	–	–	–	–	–	3%
C=C/C(C)=C/CC=C(C)C [OCIMENE]	–	–	–	–	–	16.2%
OC/C=C/c1ccccc1 [CINNAMIC ALCOHOL]	11.3%	99.5%	57.6%	100%	100%	100%
CC(=O)OC/C=C(\C)CCC=C(C)C [GERANYL ACETATE]	–	–	–	–	–	7%
O=Cc1ccccc1 [BENZALDEHYDE]	1.9%	45.6%	7.4%	77.5%	94.1%	100%
CCCCCCCCCCO [DECANOL]	100%	100%	100%	100%	100%	100%
CCCCCCCCCC=O [DECANAL]	3%	34.2%	25.1%	97.3%	100%	100%
CCCCCCCCCCC=O [UNDECANAL]	17.8%	64.1%	34.1%	90.5%	98.7%	100%
CCCCCCCCC=O [NONANAL]	1.1%	59.5%	3.6%	83.4%	95.8%	100%
OCc1ccccc1 [BENZYL ALCOHOL]	–	–	–	–	–	3.8%
CCCCCCC=O [HEPTANAL]	–	–	–	–	–	40.8%
CC(=O)c1ccccc1 [ACETOPHENONE]	–	–	–	–	–	5.3%
